From publication PMC9570042, “Impairment of Nucleolin Activity and Phosphorylation by a Trachylobane Diterpene from Psiadia punctulata in Cancer Cells” (International Journal of Molecular Sciences, 2022)

Experiments:
Jurkat cells = experiment: MTT-based proliferation assay, Jurkat cells; format: cell-based; details: Homo sapiens, read-out: IC50, inhibition of proliferation (MTT)
PBMC = experiment: Toxicity against PBMC; format: cell-based
HaCat cell lines = experiment: Toxicity against HaCat cell line; format: cell-based
hNcl = hNcl (Homo sapiens, UniProt P19338); experiment: Surface plasmon resonance with immobilized hNcl; format: binding; details: SPR, 25 °C
Experimental: A Biacore 3000 optical biosensor was used to conduct Surface Plasmon Resonance (SPR) experiments. Proteins (hNcl and RBD 1,2) were dissolved at 100 µg/mL in 50 mM sodium acetate at a pH 4.5 and injected at a flow rate of 5 µL/min on a research-grade CM5 sensor chip (GE Healthcare, Chicago, IL, USA) to achieve immobilization. A standard amine-coupling protocol was used. Compound 12 was dissolved in 100% DMSO to obtain 4 mM solutions and diluted in […] (v/v) in PBS (10 mM NaH2PO4, 137 mM NaCl, 2.7 mM KCl pH 7.4). The final concentration of DMSO was 0.1% (v/v). This stock solution was used as a starting point to produce a four-concentration points series (0.025, 0.2, 1, and 4 µM). Measurements were performed at 25 °C, using a flow rate of 5 µL/min flow rate and adopting an association time of 60 s; dissociation of the complex was monitored for 300 s. The resulting sensorgrams were elaborated through the BIAevaluation software (GE Healthcare). Thermodynamic constants were calculated by adequately fitting the experimental curves with a single-site bimolecular interaction model.

Akt mRNA = experiment: Real-time quantitative PCR of Akt mRNA in HeLa cells; format: cell-based, human; details: 20 μM, 4 h and 8 h
Excerpt: A significant validation of the proposed model was sought through specific in-cell biological assays. hNcl is a multifunctional protein involved in a number of cell pathways, depending on its cellular localization. However, one of the most relevant roles probably played by this protein is mRNA chaperone activity carried out through the interaction of the protein RBDs with the 3′-untranslated region of several target mRNAs. As hNcl has been reported to bind the mRNAs encoding for Bcl-2 [11] and Akt its inhibition can result in the destabilization of these two messengers.
Total RNA was isolated. Total RNA was isolated from cultured using Trizol Reagent (Life Technologies, Grand Island, NY, USA) according to the manufacturer instructions and spectrophotometrically quantified […] and assessed by agarose gel electrophoresis. […] To quantify specific mRNAs, real-time PCR assays were conducted using the following primer sets: forward Akt: 5′-TCTACACCCACAGATGACAG-3′; reverse Akt: 5′-CTCAAATGCACCCGAGAAAT-3′; forward Bcl-2: 5′-GGAAGTGAACATTTCGGTGAC-3′; reverse Bcl-2: 5′-CTCCATCAGCTTCCAGACAT-3′; forward 18S 5′-CGATGCTCTTAGCTGAGTGT-3′; reverse 18S 5′-GGTCCAAGAATTTCACCTCT-3′.

Akt = experiment: Western blot of Akt protein in HeLa cells; format: cell-based, human
HeLa cells = experiment: Protein neo-synthesis in HeLa cells; format: cell-based, human; details: 20 μM

hNcl, sequence (P19338 whole entry): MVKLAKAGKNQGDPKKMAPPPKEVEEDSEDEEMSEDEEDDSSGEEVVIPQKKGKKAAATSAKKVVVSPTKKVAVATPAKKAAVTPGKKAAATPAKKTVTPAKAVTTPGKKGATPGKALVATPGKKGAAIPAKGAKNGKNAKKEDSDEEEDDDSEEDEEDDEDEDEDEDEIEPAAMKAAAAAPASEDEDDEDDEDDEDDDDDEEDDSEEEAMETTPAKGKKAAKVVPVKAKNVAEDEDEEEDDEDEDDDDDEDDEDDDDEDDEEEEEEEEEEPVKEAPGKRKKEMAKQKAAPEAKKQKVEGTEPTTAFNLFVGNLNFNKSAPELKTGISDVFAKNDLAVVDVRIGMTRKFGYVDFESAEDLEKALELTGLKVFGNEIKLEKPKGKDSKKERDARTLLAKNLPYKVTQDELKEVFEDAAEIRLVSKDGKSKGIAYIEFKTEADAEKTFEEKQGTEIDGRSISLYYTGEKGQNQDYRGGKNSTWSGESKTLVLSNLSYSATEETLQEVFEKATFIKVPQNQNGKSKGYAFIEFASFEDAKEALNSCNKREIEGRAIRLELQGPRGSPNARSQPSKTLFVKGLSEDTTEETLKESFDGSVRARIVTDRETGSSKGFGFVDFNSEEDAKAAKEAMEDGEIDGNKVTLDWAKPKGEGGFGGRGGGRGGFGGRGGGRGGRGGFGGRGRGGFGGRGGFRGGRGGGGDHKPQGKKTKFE

CC1(CO)CCCC2(C)C1C(O)CC13CC4C(CC12)C4(C(=O)O)C3 (stereo not drawn) [compound 12, 6,19-dihydroxy-ent-trachiloban-17-oic acid]
IC50 (Jurkat cells): 50 µM | toxicity: concentration up to which no toxicity was observed (PBMC): > 100 µM | toxicity: concentration up to which no toxicity was observed (HaCat cell lines): > 100 µM | koff (hNcl): 0.0037 ± 0.005 s⁻¹ | Kd (hNcl; read-out: dissociation constant (KD)): 58 ± 3 nM | number of messengers for Akt (Akt mRNA): lowered | levels of Akt protein (Akt): significantly lowers | protein neo-synthesis vs untreated cells (HeLa cells): no significant differences
